Values after ≈ are worked out from the molar mass of the structure shown. Read-outs that look alike come from different tables or passages of the source.
Experiments:
Test in all cases: Antimicrobial susceptibility testing (MIC), BD Phoenix Automated Microbiology System; as to interpretation of the result: key: R, resistant; I, intermediate; S, susceptible; R*: *As a rule, when ESBL is detected, an interpretation of susceptible or intermediate for penicillins, cephalosporins and aztreonam is reported as resistant
Type in all cases: cell-based
Escherichia coli = conditions: for MIC: Escherichia coli, read-out: minimal inhibiting concentration
Excerpt: (§1) The inventors performed antimicrobial susceptibility testing (AST) by determining the minimal inhibiting concentration (MIC) of a panel of antimicrobials on all twenty bacterial isolates using the BD Phoenix Automated Microbiology System (Table 3). Antimicrobial panels included several drugs from each of the four most commonly used classes of antimicrobials, aminoglycosides, β-lactams, carbapenems and fluoroquinolones. The panels also included antimicrobials from other classes, such as trimethoprim/sulfamethoxazole, but resistance to these was not considered in the classification of isolates as multidrug-resistant.

Klebsiella ssp. = conditions: for MIC: Klebsiella
Excerpt: as §1

Acinetobacter baumannii = conditions: for MIC: Acinetobacter baumannii
Excerpt: as §1

Pseudomonas aeruginosa = tested on: Pseudomonas aeruginosa; as to interpretation of the result: key: R, resistant; I, intermediate; S, susceptible; R*: *As a rule, when ESBL is detected, an interpretation of susceptible or intermediate for penicillins, cephalosporins and aztreonam is reported as resistant
Excerpt: as §1

[1] = Acinetobacter baumannii isolate 1
[2] = Acinetobacter baumannii isolate 2
[3] = Acinetobacter baumannii isolate 3
[4] = Acinetobacter baumannii isolate 4
[5] = Acinetobacter baumannii isolate 5
[6] = read-out: minimal inhibiting concentration, Acinetobacter baumannii isolate 1
[7] = read-out: minimal inhibiting concentration, Acinetobacter baumannii isolate 2
[8] = read-out: minimal inhibiting concentration, Acinetobacter baumannii isolate 3
[9] = read-out: minimal inhibiting concentration, Acinetobacter baumannii isolate 4
[10] = read-out: minimal inhibiting concentration, Acinetobacter baumannii isolate 5
[11] = Pseudomonas aeruginosa isolate 1
[12] = Pseudomonas aeruginosa isolate 2
[13] = Pseudomonas aeruginosa isolate 3
[14] = Pseudomonas aeruginosa isolate 4
[15] = Pseudomonas aeruginosa isolate 5

| Molecule | interpretation of the result (Escherichia coli; Escherichia coli isolate 1) | interpretation of the result (Escherichia coli; Escherichia coli isolate 2) | interpretation of the result (Escherichia coli; Escherichia coli isolate 3) | interpretation of the result (Escherichia coli; Escherichia coli isolate 4) | interpretation of the result (Escherichia coli; Escherichia coli isolate 5) | interpretation of the result (Klebsiella ssp.; Klebsiella ssp. isolate 2) | interpretation of the result (Klebsiella ssp.; Klebsiella ssp. isolate 3) | interpretation of the result (Klebsiella ssp.; Klebsiella ssp. isolate 4) | interpretation of the result (Acinetobacter baumannii; [1]) | interpretation of the result (Acinetobacter baumannii; [2]) | interpretation of the result (Acinetobacter baumannii; [3]) | interpretation of the result (Acinetobacter baumannii; [4]) | interpretation of the result (Acinetobacter baumannii; [5]) | MIC (Acinetobacter baumannii; [6]) [µg/mL] | MIC (Acinetobacter baumannii; [7]) [µg/mL] | MIC (Acinetobacter baumannii; [8]) [µg/mL] | MIC (Acinetobacter baumannii; [9]) [µg/mL] | MIC (Acinetobacter baumannii; [10]) [µg/mL] | other results |
| --- | --- | --- | --- | --- | --- | --- | --- | --- | --- | --- | --- | --- | --- | --- | --- | --- | --- | --- | --- |
| O=C(O)c1cn(C2CC2)c2cc(N3CCNCC3)c(F)cc2c1=O [Cipro., Ciprofloxacin] | R | R | R | R | R |  |  |  |  |  |  |  |  |  |  |  |  |  | MIC (Escherichia coli; Escherichia coli isolate 1): > 2 µg/mL; MIC (Escherichia coli; Escherichia coli isolate 2): > 2 µg/mL; MIC (Escherichia coli; Escherichia coli isolate 3): > 2 µg/mL; MIC (Escherichia coli; Escherichia coli isolate 4): > 2 µg/mL; MIC (Escherichia coli; Escherichia coli isolate 5): > 2 µg/mL |
| C[C@@H](O)[C@H]1C(=O)N2C(C(=O)O)=C(S[C@@H]3CN[C@H](C(=O)Nc4cccc(C(=O)O)c4)C3)[C@H](C)[C@H]12 [Ert., Ertapenem] |  |  |  |  |  | S | S | S |  |  |  |  |  |  |  |  |  |  | MIC (Klebsiella ssp.; read-out: minimal inhibiting concentration, Klebsiella ssp. isolate 2): ≤ 0.5 µg/mL; MIC (Klebsiella ssp.; read-out: minimal inhibiting concentration, Klebsiella ssp. isolate 3): ≤ 0.5 µg/mL; MIC (Klebsiella ssp.; read-out: minimal inhibiting concentration, Klebsiella ssp. isolate 4): ≤ 0.5 µg/mL; susceptibility of isolates (Klebsiella ssp.; all Klebsiella ssp. isolates): susceptible; susceptibility of isolates (Escherichia coli; all E. coli isolates): susceptible |
| COc1c(N2CCNC(C)C2)c(F)cc2c(=O)c(C(=O)O)cn(C3CC3)c12 (stereo not drawn) [Gati., Gatifloxacin] |  |  |  |  |  |  |  |  | R | R | I | R | R | > 4 | > 4 | 4 (≈ 10.7 µM) | > 4 | > 4 |  |
| CCN1CCN(C(=O)N[C@@H](C(=O)N[C@@H]2C(=O)N3[C@@H]2SC(C)(C)[C@@H]3C(=O)O)c2ccccc2)C(=O)C1=O [Pip., Piperacillin] |  |  |  |  |  |  |  |  | R | R | R | R | R | > 64 | > 64 | > 64 | > 64 | > 64 |  |
| Amoxillin-Calvulanate [AmoxC.] |  |  |  |  |  | R | R | R | R | R | R | R | R |  |  |  |  |  | interpretation of the result (Klebsiella ssp.; Klebsiella ssp. isolate 1): R; minimal inhibiting concentration (Klebsiella ssp.; Klebsiella ssp. isolate 1): 16/8; minimal inhibiting concentration (Klebsiella ssp.; Klebsiella ssp. isolate 2): 16/8; minimal inhibiting concentration (Klebsiella ssp.; Klebsiella ssp. isolate 3): 8/4; minimal inhibiting concentration (Klebsiella ssp.; Klebsiella ssp. isolate 4): 16/8; interpretation of the result (Klebsiella ssp.; Klebsiella ssp. isolate 5): R; minimal inhibiting concentration (Klebsiella ssp.; Klebsiella ssp. isolate 5): 16/8; minimal inhibiting concentration (Acinetobacter baumannii; [1]): 16/8; minimal inhibiting concentration (Acinetobacter baumannii; [2]): 16/8; minimal inhibiting concentration (Acinetobacter baumannii; [3]): 16/8; minimal inhibiting concentration (Acinetobacter baumannii; [4]): 16/8; minimal inhibiting concentration (Acinetobacter baumannii; [5]): 16/8 |
| Ampicillin-Sulbactam [AmpS.] | R | R | R | R | R |  |  |  |  |  |  |  |  |  |  |  |  |  | interpretation of the result (Pseudomonas aeruginosa; [11]): R; minimal inhibiting concentration (Pseudomonas aeruginosa; [11]): 16/8; interpretation of the result (Pseudomonas aeruginosa; [12]): R; minimal inhibiting concentration (Pseudomonas aeruginosa; [12]): 16/8; interpretation of the result (Pseudomonas aeruginosa; [13]): R; minimal inhibiting concentration (Pseudomonas aeruginosa; [13]): 16/8; interpretation of the result (Pseudomonas aeruginosa; [14]): R; minimal inhibiting concentration (Pseudomonas aeruginosa; [14]): 16/8; interpretation of the result (Pseudomonas aeruginosa; [15]): R; minimal inhibiting concentration (Pseudomonas aeruginosa; [15]): 16/8; minimal inhibiting concentration (Escherichia coli; Escherichia coli isolate 1): 16/8; minimal inhibiting concentration (Escherichia coli; Escherichia coli isolate 2): 16/8; minimal inhibiting concentration (Escherichia coli; Escherichia coli isolate 3): 16/8; minimal inhibiting concentration (Escherichia coli; Escherichia coli isolate 4): 16/8; minimal inhibiting concentration (Escherichia coli; Escherichia coli isolate 5): 16/8 |

— US9529005B2, “Modulating bacterial MAM polypeptides in pathogenic disease” (priority 2011, dated 2016)
